Where a name gives a salt, the structure may show the parent alone. Read-outs that look alike come from different tables or passages of the source.
Legend:
Assay type in all cases: in vivo, rats (Sprague Dawley)
[1] = toxic effect: dose at which first toxic symptoms such as cyanosis or changes in ECG occur; details: for Toxic effect: Dose (dose producing a toxic effect): first toxic symptoms such as cyanosis or changes in ECG; for selectivity ratio: rat, in vivo, po
Procedure: (§1) To determine their anti-arrhythmic activity, the substances were administered orally to rats (Sprague Dawley, weight 200-250 g) 45 minutes before starting a thiobutabarbital narcosis (100 mg/kg administered intraperitoneally). Aconitine was used to produce arrhythmias, and was infused intravenously 60 minutes after administration of the active substance (dosage rate 0.005 mg/kg per minute). In the untreated animals, arrhythmias manifest themselves after an average of 3.32 minutes, and their occurrence can be delayed by anti-arrhythmic agents, the delay being dependent on the dose. The ED50% is the does which increases by 50% the duration of infusion up to the occurrence of arrhythmias. R.E. is the relative effect, based on quinidine.ident.1.00. The maximum effect is that achieved by administering the maximum tolerated dose. .increment.% indicates the percentage by which the duration of the aconitine infusion can be increased. R.M.E. is the relative maximum effectiveness, based on quinidine.ident.1.00. The dose producing a toxic effect indicates the amount (in mg/kg) at which the first toxic symptoms such as cyanosis or changes in ECG occur. Q is the quotient of the toxic dose and the ED50%.

[2] = tested on: arrhythmias produced by aconitine; assay: animal or person; details: for ED50: Rattus norvegicus, po, read-out: Effective dose ED50% (dose which increases by 50% the duration of infusion up to the occurrence of arrhythmias); for R.E. (relative effect, based on quinidine = 1.00): from ED50%; for R.M.E. (relative maximum effectiveness, based on quinidine = 1.00): from maximum effect; for Maximum effect: Δ% (percentage by which the duration of the aconitine infusion can be increased): rat, oral, at the maximum tolerated dose
Procedure: as §1

in vivo = details: in vivo; rat, oral; dose at which the maximum effect is achieved; read-out: Maximum effect: Dose (maximum tolerated dose)
Procedure: as §1

[3] = toxic dose / ED50%, read-out: Q (quotient of the toxic dose and the ED50%)

| Structure (SMILES) | Toxic effect: Dose (dose producing a toxic effect) [1] [mg/kg] | selectivity ratio [1, 3] | ED50 [2] [mg/kg] | R.E. (relative effect, based on quinidine = 1.00) [2] | R.M.E. (relative maximum effectiveness, based on quinidine = 1.00) [2] | Maximum effect: Δ% (percentage by which the duration of the aconitine infusion can be increased) [2] [%] | MTD (in vivo) [mg/kg] | selectivity ratio [1] |
| --- | --- | --- | --- | --- | --- | --- | --- | --- |
| c1ccc(CN2CC3CC(C2)CN(C(c2ccccc2)c2ccccc2)C3)cc1 [C6 H5 H H 0, N-Benzyl-N'-benzhydryl-bispidine fumarate] | 464 | 22.8 | 20.4 | 2.09 | 1.54 | 205 | 215 | – |
| c1ccc(CN2CC3CC(C2)CN(CC(c2ccccc2)c2ccccc2)C3)cc1 [C6 H5 H H 1, N-benzyl-N'-2,2-diphenylethylbispidine fumarate x H2 O] | 100 | 7.7 | 13 | 3.28 | 1.53 | 203 | 46.4 | – |
| FC(F)(F)c1cccc(CN2CC3CC(CN(Cc4ccccc4)C3)C2)c1 [H CF3 H 0, N-Benzyl-N'-(3-trifluoromethylbenzyl)-bispidine fumarate] | 215 | – | 25.4 | 1.68 | 1.82 | 242 | 100 | – |
| Clc1ccc(CN2CC3CC(CN(Cc4ccccc4)C3)C2)cc1Cl [H Cl Cl 0, N-Benzyl-N'-(3,4-dichlorobenzyl)-bispidine fumarate] | 464 | 29.7 | 15.6 | 2.74 | 2.13 | 283 | 215 | – |
| Clc1cccc(CN2CC3CC(CN(Cc4ccccc4)C3)C2)c1 [H Cl H 0, N-benzyl-N'-(3-chlorobenzyl)-bispidine fumarate] | 100 | 6 | 16.6 | 2.57 | 0.92 | 123 | 46.4 | – |
| Fc1ccc(CN2CC3CC(CN(Cc4ccccc4)C3)C2)cc1 [H H F 0, N-Benzyl-N'-(4-fluorobenzyl)-bispidine fumarate] | 215 | 10.6 | 20.2 | 2.11 | 1.80 | 240 | 100 | – |
| C=C[C@H]1C[N@@]2CC[C@H]1C[C@@H]2[C@@H](O)c1ccnc2ccc(OC)cc12 [Quinidine, reference compound] | 464 | – | 42.7 | 1.00 | 1.00 | 133 | 215 | 10.9 |

From patent US4183935A, “Bispidine derivatives, their preparation, and drugs containing same” (priority 1977, dated 1980)
